In experiment [1] the target is T1, Retinoic acid receptor RXR-alpha (Homo sapiens) (UniProt P19793).
T1 sequence (whole entry): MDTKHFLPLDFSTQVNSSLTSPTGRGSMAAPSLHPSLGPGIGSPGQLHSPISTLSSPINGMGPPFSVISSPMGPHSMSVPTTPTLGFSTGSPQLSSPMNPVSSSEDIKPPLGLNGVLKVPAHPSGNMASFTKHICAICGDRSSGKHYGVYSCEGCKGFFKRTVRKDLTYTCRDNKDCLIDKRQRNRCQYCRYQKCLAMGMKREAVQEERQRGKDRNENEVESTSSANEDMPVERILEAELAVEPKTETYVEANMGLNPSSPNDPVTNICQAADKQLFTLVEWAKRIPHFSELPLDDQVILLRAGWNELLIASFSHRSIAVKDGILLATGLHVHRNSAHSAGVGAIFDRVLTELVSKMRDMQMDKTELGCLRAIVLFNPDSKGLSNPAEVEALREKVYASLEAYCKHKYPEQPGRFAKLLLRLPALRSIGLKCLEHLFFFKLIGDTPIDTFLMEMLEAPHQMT
The experiment can be described thus: Selectivity interaction (Reporter gene assay) EUB0002359a RXRA. Particulars: reference bexarotene 1 uM, Selectivity number of off-targets 0.0, Selectivity number of targets 1.0, Source Knowledge inhouse. Also on record: recommended concentration 1 uM. (In a reporter assay the amount or activity of a reporter protein is the signal.)

Experiment [2] addresses T2, Hepatocyte nuclear factor 4-alpha (Homo sapiens) (UniProt P41235).
T2 sequence (whole entry): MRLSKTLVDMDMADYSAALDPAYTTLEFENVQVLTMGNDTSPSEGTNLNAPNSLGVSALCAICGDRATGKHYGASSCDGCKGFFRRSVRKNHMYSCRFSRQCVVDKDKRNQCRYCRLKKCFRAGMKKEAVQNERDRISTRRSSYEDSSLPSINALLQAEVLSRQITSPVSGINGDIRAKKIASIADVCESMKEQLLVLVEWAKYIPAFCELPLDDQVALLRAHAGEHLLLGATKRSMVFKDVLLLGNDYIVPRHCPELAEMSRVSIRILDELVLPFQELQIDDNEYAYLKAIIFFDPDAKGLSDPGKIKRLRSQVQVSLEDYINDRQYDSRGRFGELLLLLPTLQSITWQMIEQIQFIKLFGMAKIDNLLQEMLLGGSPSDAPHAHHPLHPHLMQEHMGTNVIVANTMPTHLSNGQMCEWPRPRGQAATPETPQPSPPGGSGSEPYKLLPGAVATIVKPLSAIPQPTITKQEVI
The experiment can be described thus: Selectivity interaction (Reporter gene assay) EUB0002359a HNF4A. Further details: recommended concentration 1 uM.

In experiment [3] the target is Nuclear receptor subfamily 4immunitygroup A member 1 (Homo sapiens) (UniProt P22736). The experiment can be described thus: Selectivity interaction (Reporter gene assay) EUB0002359a NR4A1. Also on record: recommended concentration 1 uM.
Experiment [4] addresses T3, Alpha trans-inducing protein (Human alphaherpesvirus 1) (UniProt A0A5J6DW59). Briefly: Selectivity interaction (Reporter gene assay) EUB0002359a UL48. Further details: recommended concentration 1 uM.
The target in experiment [5] is Steroidogenic factor 1 (Homo sapiens) (UniProt Q13285). Briefly: Selectivity interaction (Reporter gene assay) EUB0002359a NR5A1. Also on record: recommended concentration 1 uM.
In experiment [6] the target is T4, Nuclear receptor subfamily 2 group C member 1 (Homo sapiens) (UniProt P13056).
T4 sequence (whole entry): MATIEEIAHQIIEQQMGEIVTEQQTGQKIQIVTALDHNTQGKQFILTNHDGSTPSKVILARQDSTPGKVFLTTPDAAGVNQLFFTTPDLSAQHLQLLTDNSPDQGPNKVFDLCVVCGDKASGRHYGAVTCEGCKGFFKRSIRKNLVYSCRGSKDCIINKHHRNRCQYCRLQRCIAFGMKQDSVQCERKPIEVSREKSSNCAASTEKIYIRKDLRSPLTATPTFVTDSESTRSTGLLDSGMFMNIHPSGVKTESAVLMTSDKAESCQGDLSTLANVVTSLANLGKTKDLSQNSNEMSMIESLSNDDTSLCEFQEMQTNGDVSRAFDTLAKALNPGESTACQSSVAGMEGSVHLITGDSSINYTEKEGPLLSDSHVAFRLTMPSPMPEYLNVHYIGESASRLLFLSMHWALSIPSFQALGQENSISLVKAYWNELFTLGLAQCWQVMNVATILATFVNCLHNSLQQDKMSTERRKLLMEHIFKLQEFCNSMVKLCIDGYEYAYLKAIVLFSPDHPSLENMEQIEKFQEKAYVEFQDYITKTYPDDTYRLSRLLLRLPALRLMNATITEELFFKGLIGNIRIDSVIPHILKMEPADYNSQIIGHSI
Briefly: Selectivity interaction (Reporter gene assay) EUB0002359a NR2C1. Also on record: recommended concentration 1 uM.

Experiment [7] deals with Nuclear receptor subfamily 2 group E member 1 (Homo sapiens) (UniProt Q9Y466). The experiment can be described thus: Selectivity interaction (Reporter gene assay) EUB0002359a NR2E1. Further details: recommended concentration 1 uM.
Experiment [8] concerns the target Steroidogenic factor 1 (Homo sapiens) (UniProt Q13285). Briefly: Selectivity interaction (Reporter gene assay) EUB0002355a NR5A1. Further details: recommended concentration 3 uM.
Experiment [9] addresses T1, Retinoic acid receptor RXR-alpha (Homo sapiens). Briefly: Selectivity interaction (Reporter gene assay) EUB0002355a RXRA. Further details: recommended concentration 3 uM. The following applies: reference bexarotene 1 uM, Selectivity number of off-targets 0.0, Selectivity number of targets 1.0, Source Knowledge inhouse.
For experiment [10], the target named is Nuclear receptor subfamily 2 group E member 1 (Homo sapiens) (UniProt Q9Y466). The experiment can be described thus: Selectivity interaction (Reporter gene assay) EUB0002355a NR2E1. Further details: recommended concentration 3 uM.
The target of experiment [11] is T3, Alpha trans-inducing protein (Human alphaherpesvirus 1). Briefly: Selectivity interaction (Reporter gene assay) EUB0002355a UL48. Also on record: recommended concentration 3 uM.
Experiment [12] has as its target T4, Nuclear receptor subfamily 2 group C member 1 (Homo sapiens). Briefly: Selectivity interaction (Reporter gene assay) EUB0002355a NR2C1. Also on record: recommended concentration 3 uM.
Experiment [13] concerns the target T2, Hepatocyte nuclear factor 4-alpha (Homo sapiens). The experiment can be described thus: Selectivity interaction (Reporter gene assay) EUB0002355a HNF4A. Further details: recommended concentration 3 uM.
Experiment [14] has as its target Nuclear receptor subfamily 4immunitygroup A member 1 (Homo sapiens) (UniProt P22736). Briefly: Selectivity interaction (Reporter gene assay) EUB0002355a NR4A1. Further details: recommended concentration 3 uM.
Experiment [15] addresses T3, Alpha trans-inducing protein (Human alphaherpesvirus 1). Briefly: Selectivity interaction (Reporter gene assay) EUB0002358a UL48. Further details: recommended concentration 10 uM.
The target of experiment [16] is Nuclear receptor subfamily 2 group E member 1 (Homo sapiens) (UniProt Q9Y466). Briefly: Selectivity interaction (Reporter gene assay) EUB0002358a NR2E1. Also on record: recommended concentration 10 uM.
The target in experiment [17] is T2, Hepatocyte nuclear factor 4-alpha (Homo sapiens). Briefly: Selectivity interaction (Reporter gene assay) EUB0002358a HNF4A. Further details: recommended concentration 10 uM.
Experiment [18] concerns the target T4, Nuclear receptor subfamily 2 group C member 1 (Homo sapiens). The experiment can be described thus: Selectivity interaction (Reporter gene assay) EUB0002358a NR2C1. Also on record: recommended concentration 10 uM.
For experiment [19], the target named is Nuclear receptor subfamily 4immunitygroup A member 1 (Homo sapiens) (UniProt P22736). Briefly: Selectivity interaction (Reporter gene assay) EUB0002358a NR4A1. Also on record: recommended concentration 10 uM.
Experiment [20] deals with Steroidogenic factor 1 (Homo sapiens) (UniProt Q13285). Briefly: Selectivity interaction (Reporter gene assay) EUB0002358a NR5A1. Further details: recommended concentration 10 uM.
Experiment [21] addresses T1, Retinoic acid receptor RXR-alpha (Homo sapiens). The experiment can be described thus: Selectivity interaction (Reporter gene assay) EUB0002358a RXRA. Particulars: reference bexarotene 1 uM, Selectivity number of off-targets 0.0, Selectivity number of targets 1.0, Source Knowledge inhouse. Also on record: recommended concentration 10 uM.
Experiment [22] addresses Bromodomain-containing protein 4 (Homo sapiens, UniProt O60885). Briefly: Selectivity interaction (Proteomics) EUB0000269cCl BRD4. Also on record: recommended concentration 1 uM.
The target of experiment [23] is Lysine-specific histone demethylase 2 (Homo sapiens, UniProt Q8NB78). Briefly: Selectivity interaction (Proteomics) EUB0000269cCl KDM1B/LSD2. Further details: recommended concentration 1 uM.

pIC50: −log10 of the molar value.

One may read the pIC50 as −log10 of the IC50, conventionally taken in molar units. High values mean a small IC50, low ones a large IC50.

Nuclear receptor subfamily 2 group E member 1 (Homo sapiens), sequence (Q9Y466 whole entry): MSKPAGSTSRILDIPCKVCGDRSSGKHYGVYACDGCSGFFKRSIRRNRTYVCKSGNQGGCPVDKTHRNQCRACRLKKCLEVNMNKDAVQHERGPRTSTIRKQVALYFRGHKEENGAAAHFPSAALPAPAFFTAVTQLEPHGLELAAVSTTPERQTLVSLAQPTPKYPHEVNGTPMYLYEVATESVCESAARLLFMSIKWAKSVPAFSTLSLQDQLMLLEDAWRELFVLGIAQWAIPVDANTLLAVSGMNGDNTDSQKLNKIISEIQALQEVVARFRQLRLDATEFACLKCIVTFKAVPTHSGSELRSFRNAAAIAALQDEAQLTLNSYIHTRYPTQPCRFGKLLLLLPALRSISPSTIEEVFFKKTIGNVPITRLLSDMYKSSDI
T3 sequence (A0A5J6DW59 as listed by the source): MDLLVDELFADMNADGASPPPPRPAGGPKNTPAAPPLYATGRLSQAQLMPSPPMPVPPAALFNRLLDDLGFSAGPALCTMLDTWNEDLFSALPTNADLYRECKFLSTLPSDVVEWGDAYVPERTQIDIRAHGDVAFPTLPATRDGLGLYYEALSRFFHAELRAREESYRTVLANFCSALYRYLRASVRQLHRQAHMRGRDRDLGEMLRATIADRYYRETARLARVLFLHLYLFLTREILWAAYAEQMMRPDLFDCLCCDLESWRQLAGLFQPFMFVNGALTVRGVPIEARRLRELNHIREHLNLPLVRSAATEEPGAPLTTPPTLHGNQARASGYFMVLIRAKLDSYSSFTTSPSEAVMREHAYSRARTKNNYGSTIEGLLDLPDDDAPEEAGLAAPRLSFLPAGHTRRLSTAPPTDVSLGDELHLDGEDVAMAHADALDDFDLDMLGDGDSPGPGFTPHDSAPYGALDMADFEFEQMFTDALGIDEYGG
Steroidogenic factor 1 (Homo sapiens), sequence (Q13285 whole entry): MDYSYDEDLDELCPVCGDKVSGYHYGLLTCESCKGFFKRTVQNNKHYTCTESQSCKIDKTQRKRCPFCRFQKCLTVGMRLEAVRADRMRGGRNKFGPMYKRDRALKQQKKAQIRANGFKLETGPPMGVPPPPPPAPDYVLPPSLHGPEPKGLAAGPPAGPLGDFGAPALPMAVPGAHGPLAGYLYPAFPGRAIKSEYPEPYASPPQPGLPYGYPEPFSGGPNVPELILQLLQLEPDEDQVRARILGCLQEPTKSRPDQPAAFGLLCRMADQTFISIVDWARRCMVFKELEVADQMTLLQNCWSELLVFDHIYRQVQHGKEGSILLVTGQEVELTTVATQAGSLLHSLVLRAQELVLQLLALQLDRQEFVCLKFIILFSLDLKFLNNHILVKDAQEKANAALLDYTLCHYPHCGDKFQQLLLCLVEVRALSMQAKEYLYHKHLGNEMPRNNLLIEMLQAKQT
Nuclear receptor subfamily 4immunitygroup A member 1 (Homo sapiens), sequence (P22736 whole entry): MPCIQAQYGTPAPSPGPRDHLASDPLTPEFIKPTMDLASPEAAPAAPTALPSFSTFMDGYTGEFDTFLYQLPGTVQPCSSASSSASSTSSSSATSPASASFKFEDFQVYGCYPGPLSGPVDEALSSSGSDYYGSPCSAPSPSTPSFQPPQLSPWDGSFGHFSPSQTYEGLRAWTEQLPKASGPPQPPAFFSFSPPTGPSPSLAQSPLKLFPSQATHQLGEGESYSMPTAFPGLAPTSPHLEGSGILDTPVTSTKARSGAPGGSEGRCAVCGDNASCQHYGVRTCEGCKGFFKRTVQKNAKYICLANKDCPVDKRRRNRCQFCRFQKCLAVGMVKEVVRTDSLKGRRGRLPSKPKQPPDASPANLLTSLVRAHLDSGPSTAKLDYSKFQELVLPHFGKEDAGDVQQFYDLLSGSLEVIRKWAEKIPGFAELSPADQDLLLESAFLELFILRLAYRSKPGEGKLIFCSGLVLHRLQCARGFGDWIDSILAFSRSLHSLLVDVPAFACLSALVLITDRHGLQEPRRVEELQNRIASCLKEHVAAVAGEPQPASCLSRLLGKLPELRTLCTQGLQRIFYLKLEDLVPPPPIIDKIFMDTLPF
Lysine-specific histone demethylase 2, sequence (Q8NB78 whole entry): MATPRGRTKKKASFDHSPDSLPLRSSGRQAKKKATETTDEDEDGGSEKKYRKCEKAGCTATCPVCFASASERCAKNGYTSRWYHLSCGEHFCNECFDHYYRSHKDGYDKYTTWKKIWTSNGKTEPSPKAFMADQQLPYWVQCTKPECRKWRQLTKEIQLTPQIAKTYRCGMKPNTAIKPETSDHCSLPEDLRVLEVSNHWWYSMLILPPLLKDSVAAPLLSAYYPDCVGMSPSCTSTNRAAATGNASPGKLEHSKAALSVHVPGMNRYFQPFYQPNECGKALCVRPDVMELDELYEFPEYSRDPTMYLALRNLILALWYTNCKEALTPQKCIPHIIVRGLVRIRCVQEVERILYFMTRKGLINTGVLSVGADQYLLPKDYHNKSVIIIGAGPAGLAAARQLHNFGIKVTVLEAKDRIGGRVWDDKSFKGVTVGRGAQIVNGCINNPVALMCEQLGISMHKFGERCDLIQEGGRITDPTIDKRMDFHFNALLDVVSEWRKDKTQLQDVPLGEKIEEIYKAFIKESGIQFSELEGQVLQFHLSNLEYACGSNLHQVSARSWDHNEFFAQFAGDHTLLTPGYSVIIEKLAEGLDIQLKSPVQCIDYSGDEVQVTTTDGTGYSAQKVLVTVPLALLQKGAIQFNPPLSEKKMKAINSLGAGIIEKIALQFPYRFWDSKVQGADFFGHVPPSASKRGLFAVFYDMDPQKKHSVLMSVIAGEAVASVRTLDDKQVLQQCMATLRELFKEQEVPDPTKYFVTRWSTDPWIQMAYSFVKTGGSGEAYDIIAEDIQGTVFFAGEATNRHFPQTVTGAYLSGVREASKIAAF

`CC(C)c1c(CN(C)C(C)Cc2ccccc2)n(C)n(-c2ccccc2)c1=O` (stereo not drawn) came in with a Relative activation in [1] of 0.69%. Moreover, the Fold activation in experiment [2] is 1.15; in experiment [5] it was 1.12; in [6], 1.13. Further, the Remaining activity stood at 0.96 in experiment [3] and 0.769 in [7]. In [4], this compound came in with a P-value of 0.00161.
In the case of `Cc1oc2ccccc2c1Cc1cc(I)c(OCC(=O)O)c(I)c1`, the Remaining activity was determined as 0.684 in experiment [8], 0.732 in [10] and 0.739 in [13]. Moreover, the Relative activation in [9] was 0.91%. The compound also registered a P-value in experiment [11] of 0.0128. Besides, the values for the Fold activation in experiment [12] and in experiment [14] were 1.28 and 1.02, respectively.
`O=c1[nH]c2ccccc2n1CCCN1CCN(C(c2ccccc2)c2ccccc2)CC1` yielded a P-value in [15] of 6e-08. The Fold activation turned out to be 0.661 in experiment [16], 0.736 in experiment [17], 0.803 in experiment [18] and 1.16 in [19]. Moreover, the Remaining activity in [20] amounted to 1.07. The same compound gave a Relative activation in [21] of 0.76%.
In the case of `Cc1cc(CN)cc(C)c1-c1ncn(C)c1-c1ccnc2cc(F)ccc12`, the negative-log IC50 (pIC50) in experiment [22] was below 3.00; in [23] it was below 4.00.
